# Laboratory results published in article PMC2206373, “Identification of an altered peptide ligand based on the endogenously presented, rheumatoid arthritis-associated, human cartilage glycoprotein-39(263–275) epitope: an MHC anchor variant peptide for immune modulation” (Arthritis Research & Therapy, 2007).
# No end group written: not given here.
# Tests used:
# [1] = system: popliteal lymph node cells from HC gp-39(263–275)-immunized huCD4, HLA-DR4 transgenic mice; assay: Antigen-specific cytokine production of popliteal lymph node cells from WT peptide-immunized mice; type: cell-based, mouse; details: for IFNγ concentration / MIP1α concentration / RANTES concentration: 96 h supernatant, Luminex
# Description: (§1) Mice, obtained from L Fugger (Oxford, UK), were immunized in the hind footpads with 2 × 50 μg of purified recombinant HC gp-39, with 2 × 100 μg of the WT peptide or with 2 × 100 μg of the APL (F265(Dip); compound 28; Figure 1) mixed in IFA. Seven days later, popliteal lymph node cell suspensions (1 to 2 × 10^5 cells/well) were stimulated in vitro with HC gp-39 (50, 10 or 2 μg/ml), HC gp-39(263–275) or APL (10, 2 and 0.4 μg/ml). At 96 h, 50 μl of culture medium was harvested for analysis of antigen-specific cytokine production using Luminex technology (mouse cytokine 18 Plex Panel, catalogue no. 171-F11181, Biorad, Bio-Rad Laboratories, Hercules, CA, USA). In addition, cultures were labelled with tritiated thymidine (for 18 h) and antigen-specific proliferation was determined. We state that all animal experimentation received ethics approval and animals were treated according to the recognized guidelines.
# [2] = system: B1*0405; details: cited from earlier work
# Text: (§2) Four TCR contact sites (Ala268, Ser269, Glu271 and Thr272) are important for polyclonal T cell activation. No information is available on important residues in the MHC α-chain, but for the β chain information on MHC restriction can be used (data not shown). The peptide does bind to HLA-DRB1*0402, B1*0405 and B1*0101 [7]. […] This leads to the view of the MHC-peptide complex in Figure 3b. Some of these MHC β-chain residues are th ...
# [3] = system: B1*0101; details: cited from earlier work
# Text: as §2
# [4] = biological target: HLA-DRB1*0402 (Homo sapiens, UniProt P01903+P01911, A100E/A169T/F76Y/K127E/L162R/M171V/N62H/P40V/Q125Y/Q99D/R42H/S133A/S149N/S66Y/V209L/W38E); details: cited from earlier work
# Text: as §2
# [5] = system: popliteal lymph node cells from F265(Dip)-immunized HLA-DR4trg mice; assay: Antigen-specific proliferation of popliteal lymph node cells from F265(Dip)-immunized mice; type: cell-based, mouse; details: Figure 4b
# Description: as §1
# [6] = system: T cell hybridoma 14G11; assay: T hybridoma 14G11 IL-2 response; type: cell-based, mouse; details: for Hybridoma response (SI) 14G11: IL-2 by ELISA after 48 h, peptide 10 μg/ml, SI > 2 positive
# Description: (§3) The T cell hybridomas, provided by G Sonderstrup (Stanford, CA, USA), were generated as described. In brief, human CD4, HLA-DRA*101/HLA-DRB*0401 triple transgenic (HLA-DR4trg) mice (devoid of I-Aβ) were immunized in the footpad with 50 μg of purified HC gp-39 mixed in incomplete Freund's adjuvant (IFA). Draining lymph nodes were isolated and T-cell hybridomas were generated by polyethylene glycol fusion of primed and in vitro antigen-restimulated lymph node cells with the AKR BW5147 fusion partner. Following fusion, growth-positive hybridoma wells were screened for reactivity to HC gp-39 and a set of 55 peptides (16 amino acids in length) covering the entire HC gp-39 sequence. HLA-DR4(B1*0401)-restricted hybridomas responsive to both the HC gp-39 protein and the immunodominant epitope 263–275 of HC gp-39 (for example, 5G11, 8B12, 14G11 and 20H5) were cloned, subcloned, characterised and selected for further study.
# (§4) HC gp-39-specific IL-2 production by T hybridomas was measured in wells of round-bottomed microtiter plates. Hybridoma cells (2 to 5 × 10^4) and irradiated APC (0.5 to 1 × 10^5; 12,000 to 16,000 RAD) from the B lymphoblastoid cell line (BLCL) carrying the DRB1*0401 specificity were incubated in 150 μl volumes. Antigen was added in 50 μl volumes to duplicate wells. After 48 h, 100 μl of the culture supernatant was assayed for IL-2 production using a sandwich ELISA with Pharmingen antibodies specific for mouse IL-2. The antigen sensitivity of the hybridomas to both peptide and protein was determined (Figure 2). […] In later assays, an excess of peptide or APL (10 μg/ml), inducing maximal responses in all hybridomas, was tested.
# [7] = system: popliteal lymph node cells from HC gp-39(263–275)-immunized huCD4, HLA-DR4 transgenic mice; assay: Antigen-specific proliferation of popliteal lymph node cells from WT peptide-immunized mice; type: cell-based, mouse; details: 96 h, tritiated thymidine, background 407 cpm, SI > 2 positive, SD not above 30%
# Description: as §1
# [8] = system: popliteal lymph node cells from F265(Dip)-immunized HLA-DR4trg mice; assay: Antigen-specific cytokine production of popliteal lymph node cells from F265(Dip)-immunized mice; type: cell-based, mouse; details: Figure 4b
# Description: as §1
# [9] = system: T cell hybridoma 5G11; assay: T hybridoma 5G11 IL-2 response; type: cell-based, mouse; details: for Hybridoma response (SI) 5G11: IL-2 by ELISA after 48 h, peptide 10 μg/ml, SI > 2 positive
# Description: as §3, §4
# [10] = system: T cell hybridoma 20H5; assay: T hybridoma 20H5 IL-2 response; type: cell-based, mouse; details: for Hybridoma response (SI) 20H5: IL-2 by ELISA after 48 h, peptide 10 μg/ml, DRB1*0401 BLCL as APC, SI > 2 positive
# Description: as §3, §4
# [11] = Figure 4a, WT peptide-immunized HLA-DR4trg mice
# [12] = Figure 2a dose response, IL-2 ELISA after 48 h
sequence,measurement,setting,value
"RSFTLASSETGVG [Compound 1, HC gp-39(263–275)]",Ex vivo recall IFNγ production in words,[1]; [11],significant levels
same,Ex vivo recall Mip1α production in words,[1]; [11],significant levels
same,Ex vivo recall RANTES production in words,[1]; [11],significant levels
same,IFNγ concentration,[1]; peptide 0.4 μg/ml,<5 pg/mL
same,MIP1α concentration,[1]; peptide 0.4 μg/ml,25 pg/mL
same,RANTES concentration,[1]; peptide 0.4 μg/ml,6 pg/mL
same,IFNγ concentration,[1]; peptide 2 μg/ml,6 pg/mL
same,MIP1α concentration,[1]; peptide 2 μg/ml,128 pg/mL
same,RANTES concentration,[1]; peptide 2 μg/ml,13 pg/mL
same,IFNγ concentration,[1]; peptide 10 μg/ml,16 pg/mL
same,MIP1α concentration,[1]; peptide 10 μg/ml,252 pg/mL
same,RANTES concentration,[1]; peptide 10 μg/ml,23 pg/mL
same,Binding to HLA-DRB1*0405 in words,[2],does bind
same,Binding to HLA-DRB1*0101 in words,[3],does bind
same,Binding to HLA-DRB1*0402 in words,[4],does bind
same,In vitro recall proliferative response in words,[5],somewhat less
same,T hybridoma (SI) 14G11,"[6]; Figure 1, IL-2 production, DRB1*0401 BLCL as APC, duplicate or triplicate, background 7,152 counts, ±30% of WT response = super/partial agonist",35 SI
same,"Peptide concentration for half maximal stimulation (IL-2), 14G11",[6]; [12],0.26 µg/mL
same,Hybridoma response (SI) 14G11,"[6]; Table 1, DRB1*0401 BLCL as APC, background 8,598 counts, representative of at least three experiments",15 SI
same,Hybridoma response (SI) 14G11,"[6]; Table 2, DRB1*0401 BLCL as APC, background 10,131 counts, SD not above 15%",30 SI
same,Prol (SI),[7]; peptide 0.4 μg/ml,3 SI
same,Prol (SI),[7]; peptide 2 μg/ml,6 SI
same,Prol (SI),[7]; peptide 10 μg/ml,8 SI
same,In vitro recall IFNγ production in words,[8],failed to induce significant levels
same,In vitro recall Mip1α production in words,[8],failed to induce significant levels
same,In vitro recall RANTES production in words,[8],failed to induce significant levels
same,T hybridoma (SI) 5G11,"[9]; Figure 1, IL-2 production, DRB1*0401 BLCL as APC, duplicate or triplicate, background 29,203 counts, ±30% of WT response = super/partial agonist",29 SI
same,"Peptide concentration for half maximal stimulation (IL-2), 5G11",[9]; [12],2 µg/mL
same,Hybridoma response (SI) 5G11,"[9]; Table 1, DRB1*0401 BLCL as APC, background 8,147 counts, representative of at least three experiments",13 SI
same,Hybridoma response (SI) 5G11,"[9]; Table 2, DRB1*0401 BLCL as APC, background 17,238 counts, SD not above 15%",17 SI
same,"Peptide concentration for half maximal stimulation (IL-2), 20H5",[10]; [12],0.02 µg/mL
same,Hybridoma response (SI) 20H5,"[10]; Table 1, background 35,749 counts, representative of at least three experiments",26 SI
same,Hybridoma response (SI) 20H5,"[10]; Table 2, background 290,666 counts, SD not above 15%",5 SI
